From PubChem BioAssay (NCI)
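Exposure lasted 48 hours, with cells grown in 96-well plates and compounds tested at five concentrations. Abbreviation: GI50, concentration required for 50% inhibition of growth. TGI marks complete inhibition of growth.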

Legend:
Assay in all cases: inhibition of tumour cell growth, NCI panel, 48 h
[1] = tested on: A498 renal
[2] = tested on: ACHN renal
[3] = tested on: TK-10 renal
[4] = tested on: M14 melanoma
[5] = tested on: SW-620 colon
[6] = tested on: HL-60(TB) leukemia
[7] = tested on: MDA-MB-435
[8] = tested on: EKVX NSCLC
[9] = tested on: 786-0 renal
[10] = tested on: PC-3 prostate
[11] = tested on: DU-145 prostate
[12] = tested on: NCI/ADR-RES ovarian
[13] = tested on: UACC-257 melanoma
[14] = tested on: OVCAR-5 ovarian
[15] = tested on: SN12C renal
[16] = tested on: HCT-15 colon
[17] = tested on: CAKI-1 renal
[18] = tested on: HCC-2998 colon
[19] = tested on: SNB-19 CNS
[20] = tested on: A549 NSCLC
[21] = tested on: HT29 colon
[22] = tested on: UO-31 renal
[23] = tested on: MCF7 breast
[24] = tested on: CCRF-CEM leukemia
[25] = tested on: UACC-62 melanoma
[26] = tested on: OVCAR-3 ovarian
[27] = tested on: OVCAR-4 ovarian
[28] = tested on: SNB-75 CNS
[29] = tested on: SF-268 CNS
[30] = tested on: BT-549 breast
[31] = tested on: MDA-MB-231 breast
[32] = tested on: RXF 393 renal
[33] = tested on: SK-MEL-28 melanoma
[34] = tested on: SK-MEL-5 melanoma
[35] = tested on: LOX IMVI melanoma
[36] = tested on: MOLT-4 leukemia
[37] = tested on: OVCAR-8 ovarian
[38] = tested on: SR leukemia
[39] = tested on: KM12 colon
[40] = tested on: SK-OV-3 ovarian
[41] = tested on: MALME-3M melanoma
[42] = tested on: NCI-H23 lung
[43] = tested on: HS 578T breast
[44] = tested on: RPMI-8226 leukemia
[45] = tested on: SF-539 CNS
[46] = tested on: NCI-H226 lung

## c1cc(-c2ccc(-c3ccc(C4=NC5CCCCC5N4)cc3)o2)ccc1C1=NC2CCCCC2N1 (centres undefined)
[1]
  TGI: 9.04 µM
[2]
  TGI: 5.7 µM
[3]
  TGI: 16.4 µM
[4]
  TGI: 3.01 µM
[5]
  TGI: > 100 µM
[6]
  TGI: 4.86 µM
[7]
  TGI: 4.84 µM
[8]
  TGI: 3.42 µM
[9]
  TGI: 2.81 µM
[10]
  TGI: 2.78 µM
[11]
  TGI: 3.33 µM
[12]
  TGI: > 100 µM
[13]
  TGI: 3.28 µM
[14]
  TGI: 4.55 µM
[15]
  TGI: 3.03 µM
[16]
  TGI: 79.4 µM
[17]
  TGI: > 100 µM
[18]
  TGI: 2.56 µM
[19]
  TGI: 2.8 µM
[20]
  TGI: 3.14 µM
[21]
  TGI: 2.89 µM
[22]
  TGI: 6.89 µM
[23]
  TGI: 2.53 µM
[24]
  TGI: > 100 µM
[25]
  TGI: 3.14 µM

## CCCC[N+](CCCC)=c1ccc2nc3c(C)cc(N(CC)CC)cc3sc-2c1
[1]
  GI50: 0.236 µM
  TGI: 4.43 µM
[2]
  GI50: 0.187 µM
  TGI: 1.06 µM
[3]
  GI50: 0.102 µM
  TGI: 1.58 µM
[26]
  GI50: 0.12 µM
  TGI: 1.15 µM
[27]
  GI50: 0.0517 µM
  TGI: 1.11 µM
[4]
  GI50: 0.338 µM
  TGI: 1.64 µM
[5]
  GI50: 0.245 µM
  TGI: 1.58 µM
[6]
  GI50: 0.0995 µM
  TGI: 0.773 µM
[28]
  GI50: 0.229 µM
  TGI: 1.1 µM
[29]
  GI50: 0.339 µM
  TGI: 1.78 µM
[30]
  GI50: 0.225 µM
  TGI: 1.73 µM
[7]
  GI50: 0.205 µM
  TGI: 1.2 µM
[9]
  GI50: 0.302 µM
  TGI: 1.44 µM
[10]
  GI50: 0.0583 µM
  TGI: 1.55 µM
[11]
  GI50: 0.307 µM
  TGI: 1.47 µM
[12]
  GI50: 0.327 µM
  TGI: 1.84 µM
[31]
  GI50: 0.247 µM
  TGI: 0.849 µM
[14]
  GI50: 0.349 µM
  TGI: 1.61 µM
[32]
  GI50: 0.322 µM
  TGI: 1.41 µM
[33]
  GI50: 0.613 µM
  TGI: 2.03 µM
[34]
  GI50: 0.0993 µM
  TGI: 0.403 µM
[17]
  GI50: 0.183 µM
  TGI: 1.1 µM
[35]
  GI50: 0.146 µM
  TGI: 1.13 µM
[36]
  GI50: 0.0958 µM
  TGI: 3.14 µM
[37]
  GI50: 0.0703 µM
  TGI: 2.16 µM
[38]
  GI50: 0.0524 µM
  TGI: 1.97 µM
[39]
  GI50: 0.113 µM
  TGI: 1.34 µM
[40]
  GI50: 0.28 µM
  TGI: 1.05 µM
[41]
  GI50: 0.165 µM
  TGI: 0.429 µM
[42]
  GI50: 0.0601 µM
  TGI: 1.04 µM
[22]
  GI50: 0.134 µM
  TGI: 0.804 µM
[43]
  GI50: 0.341 µM
  TGI: 2.29 µM
[24]
  GI50: 0.0923 µM
  TGI: 3.42 µM
[44]
  GI50: 0.0571 µM
  TGI: 1.58 µM
[25]
  GI50: 0.29 µM
  TGI: 1.77 µM
[45]
  GI50: 0.192 µM
  TGI: 1.14 µM
[46]
  GI50: 0.265 µM
  TGI: 1.72 µM
